# Source: PubChem BioAssay AID608 (Sanford-Burnham Center for Chemical Genomics, 2007)
# The source made the active and inactive calls. The rule behind the calls is not given here.
# Molecular target: Peptidyl-prolyl cis-trans isomerase FKBP1A (Homo sapiens) (UniProt P62942)
# Experiment: small-molecule binding to FKBP12 – biophysical, NMR detection (AID 608)
# Conditions: purified FKBP12
# Sequence of Peptidyl-prolyl cis-trans isomerase FKBP1A (Homo sapiens) (P62942 whole entry, looked up): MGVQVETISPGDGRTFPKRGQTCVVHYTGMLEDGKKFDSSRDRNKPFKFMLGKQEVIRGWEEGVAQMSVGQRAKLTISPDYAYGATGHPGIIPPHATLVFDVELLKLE
row,Compound,Kd
1,O=C(NN1CCOCC1)c1cccs1,> 4 mM (inactive)
2,N#CCCn1c(=O)oc2ccccc21,> 4 mM (inactive)
3,O=c1ccn(Cc2ccccc2)c(=O)n1Cc1ccccc1,> 4 mM (inactive)
4,CC1=NN2C(=N)CC(=O)N=C2S1,> 4 mM (inactive)
5,C=CCc1ccc(O)c(OC)c1,> 4 mM (inactive)
6,Cn1cnc2c(cnn2-c2ccccc2)c1=O,> 4 mM (inactive)
7,COC(=O)[C@]1(C)CCC[C@]2(C)c3ccc(C(C)C)cc3C(=O)CC12 (some centres not stated),> 4 mM (inactive)
8,Cc1cc(=O)n2[nH]c(N)nc2n1,> 4 mM (inactive)
9,Cc1ccc(NS(=O)(=O)N2CCCCC2)cc1,0.425 mM
10,Cc1cc(C)n(-c2ccc(N)cc2)n1,> 4 mM (inactive)
11,O=C1c2ccccc2C(=O)N1OCc1ccccc1,> 4 mM (inactive)
12,CC(C)(O)[C@@H]1[C@H]2OC(=O)[C@@H]1[C@]1(O)C[C@H]3O[C@]34C(=O)O[C@H]2[C@]14C,> 4 mM (inactive)
13,Nc1n[nH]c(=S)n1-c1ccccc1,> 4 mM (inactive)
14,CC(=O)Nc1cc(S(=O)(=O)N(C)C)ccc1Cl,> 4 mM (inactive)
15,NCCc1c[nH]c2ccccc12,> 4 mM (inactive)
16,CC(CCC(=O)O)[C@H]1CCC2C3CC[C@@H]4C[C@H](O)CC[C@]4(C)C3CC[C@@]21C (some centres not stated),> 4 mM (inactive)
17,Nc1nnc(-c2ccncc2)s1,> 4 mM (inactive)
18,Cc1cc(C(=O)N2CCC3(CC2)OCCO3)cs1,> 4 mM (inactive)
19,CC(=O)Nc1ccc(-c2nc(C)c(C(C)=O)n2O)cc1,> 4 mM (inactive)
20,CC(CC(=O)NN)C1(O)CCCCC1 (configuration not stated),> 4 mM (inactive)
21,Cc1cc(NC(=O)CSc2ccnc(=O)[nH]2)no1,> 4 mM (inactive)
22,COC(=O)c1ccc(N2CCOCC2)nc1,> 4 mM (inactive)
23,Clc1ccc(-c2noc(CN3CCCC3)n2)cc1,> 4 mM (inactive)
24,Cc1nc(SCC#N)c2c(C)c(C)sc2n1,> 4 mM (inactive)

row,Compound,Kd
1,CNC(=O)c1cc(C)c(-c2ccccc2)s1,> 4 mM (inactive)
2,C/C1=C\CCC(=O)C2CC(C)(C)C2CC1 (configuration not stated),> 4 mM (inactive)
3,COc1ccc(C)cc1S(=O)(=O)Nc1ccccc1C,> 4 mM (inactive)
4,Cn1c(=O)c2c(n(C)c1=O)=NC1(CCCCC1)N=2,> 4 mM (inactive)
5,NS(=O)(=O)c1ccc(NC(=O)C(F)(F)F)cc1,> 4 mM (inactive)
6,Clc1ccc2c(N3CCNCC3)ccnc2c1,> 4 mM (inactive)
7,Cn1c(CSc2nc3ccccc3s2)n[nH]c1=S,> 4 mM (inactive)
8,CC(=O)O[C@@H]1CC2C(C)(C)C(=O)C=C[C@]2(C)C2CC[C@]3(C)C(=CC(=O)O[C@H]3c3ccoc3)[C@@]21C (some centres not stated),> 4 mM (inactive)
9,OC1CCN(c2nccc(C(F)(F)F)n2)CC1,> 4 mM (inactive)
10,O=C(O)c1cnc2sc3ccccc3n2c1=O,> 4 mM (inactive)
11,OCC1CCN(c2ncccn2)CC1,> 4 mM (inactive)
12,O=C1NC(=S)NC(=O)C1=Cc1ccco1,> 4 mM (inactive)
13,NCC(O)c1ccc(O)cc1 (configuration not stated),> 4 mM (inactive)
14,CN1CCC(=NNC(=O)c2ccco2)CC1,> 4 mM (inactive)
15,NC1=NC(=O)/C(=C/c2cccc([N+](=O)[O-])c2)S1,> 4 mM (inactive)
16,O=C(Nc1ccccc1)c1cnc2n(c1=O)CCS2,> 4 mM (inactive)
17,Cc1ccc(S(=O)(=O)CC(=O)N(C)C)cc1,> 4 mM (inactive)
18,N/C(=N/O)C1COc2ccccc2O1 (configuration not stated),> 4 mM (inactive)
19,N#Cc1cnn(-c2ccc(Cl)cc2)c1N,> 4 mM (inactive)
20,O=C(O)CCC(=O)Nc1ccccc1F,> 4 mM (inactive)
21,CC(=O)Nc1ccc(S(N)(=O)=O)cc1,> 4 mM (inactive)
22,Cc1ccc(C(=O)Nc2ccncc2)o1,> 4 mM (inactive)
23,O=c1ccc2ccc(O)cc2o1,> 4 mM (inactive)
24,O=C1CNC(=O)N1c1cccc(Cl)c1,> 4 mM (inactive)

row,Compound,Kd
1,O=C(c1ccco1)N1CCN(Cc2cccc(F)c2)CC1,> 4 mM (inactive)
2,Cc1oc2nc3c(c(=O)[nH]c(=O)n3C)n2c1C,> 4 mM (inactive)
3,NC1CN2CCC1CC2 (configuration not stated),> 4 mM (inactive)
4,COc1cc2c(cc1OC)C1Cc3ccc(OC)c(OC)c3CN1CC2 (configuration not stated),> 4 mM (inactive)
5,COc1ccccc1C(=O)Nc1ccccn1,> 4 mM (inactive)
6,O=S(=O)(N1CCCCC1)n1c(Cc2ccccc2)nc2ccccc21,> 4 mM (inactive)
7,CN1CCN(c2ccc(N)cc2)CC1,> 4 mM (inactive)
8,NC(=O)CSc1nnc2ccc3ccccc3n12,> 4 mM (inactive)
9,Oc1ccc(C(=S)N2CCCCC2)cc1Cl,> 4 mM (inactive)
10,CCN1CCn2c1nc(N1CCOCC1)nc2=O,> 4 mM (inactive)
11,C=CCN1CC[C@]23c4c5ccc(O)c4OC2C(=O)CC[C@@]3(O)[C@H]1C5 (some centres not stated),> 4 mM (inactive)
12,CCNC(CC(=O)Nc1cccc([N+](=O)[O-])c1)C(=O)O (configuration not stated),> 4 mM (inactive)
13,O=C1COc2ccc(C(=O)c3ccccc3)cc2CN1,> 4 mM (inactive)
14,CC(O)c1ccc(C(C)O)cc1 (configuration not stated),> 4 mM (inactive)
15,COc1ccc2c(c1)OC[C@@H](Cc1ccc(OC)c(OC)c1)[C@H]2O,> 4 mM (inactive)
16,CC(=O)O[C@H]1CC[C@@]2(C)C(=CC(=O)C3C4CCC(C(C)CCCC(C)C)[C@@]4(C)CCC32)C1 (some centres not stated),> 4 mM (inactive)
17,CC(=O)O[C@H]1C[C@@H](OC(C)=O)C(C)(C)C2C[C@@H](OC(C)=O)[C@]3(C)C([C@H](OC(C)=O)C[C@@]4(C)[C@H](c5ccoc5)OC(=O)[C@H]5O[C@]543)[C@]21C (some centres not stated),> 4 mM (inactive)
18,CN(C)/C=N/S(=O)(=O)c1ccccc1,> 4 mM (inactive)
19,COC(=O)c1cccc2cc[nH]c12,> 4 mM (inactive)
20,O=C(O)c1cncc(-c2ccccc2)c1,> 4 mM (inactive)
21,O=C(c1cc(-c2ccccc2)on1)N1CCCC1,> 4 mM (inactive)
22,Cc1nnc(SCC(=O)NCc2ccccc2)[nH]c1=O,> 4 mM (inactive)
23,CC(=O)N/N=C(\C)c1cccc(N)c1,> 4 mM (inactive)
24,Cc1nnsc1C(=O)Nc1cccc(S(N)(=O)=O)c1,> 4 mM (inactive)

row,Compound,Kd
1,NC(=O)NC1C=CS(=O)(=O)C1 (configuration not stated),> 4 mM (inactive)
2,COCc1cc(Cl)nc(-c2csc(C)n2)n1,> 4 mM (inactive)
3,COc1nc(C)ccc1-c1noc(-c2ccncc2)n1,> 4 mM (inactive)
4,O=c1nc(N2CCOCC2)nc2n1CCO2,> 4 mM (inactive)
5,CC(CCC(=O)O)[C@H]1CCC2C3CC[C@@H]4C[C@H](O)CC[C@]4(C)C3C[C@H](O)[C@@]21C (some centres not stated),> 4 mM (inactive)
6,CC(=O)c1c(C)n([O-])c2ccccc2[n+]1=O,> 4 mM (inactive)
7,CC(=O)O[C@@H]1CC2C(C)(C)C(=O)C3OC3[C@]2(C)C2CC[C@@]3(C)[C@H](c4ccoc4)OC(=O)C4OC43[C@@]21C (some centres not stated),> 4 mM (inactive)
8,Cc1ccc(SCc2nc(-c3cccnc3)no2)cc1,> 4 mM (inactive)
9,CCN1CCN(c2ncnc3c2nnn3C)CC1,> 4 mM (inactive)
10,CN(C)c1oc(-c2ccccc2Cl)nc1C#N,> 4 mM (inactive)
11,Cn1c([O-])c([N+](C)(C)C)c(=O)n(C)c1=O,> 4 mM (inactive)
12,O=[n+]1c2c(n([O-])c3ccccc31)CCCC2,> 4 mM (inactive)
13,Cc1nn(C)c(Cl)c1S(=O)(=O)N1CCOCC1,> 4 mM (inactive)
14,Cc1c(C)[n+]([O-])c(-c2ccc([N+](=O)[O-])cc2)n1O,> 4 mM (inactive)
15,CNC(=O)c1cc(S(=O)(=O)N(C)C)ccc1Cl,> 4 mM (inactive)
16,Cc1cc(C)n(C2CCS(=O)(=O)C2)n1 (configuration not stated),> 4 mM (inactive)
17,CS(C)=C1C(=O)NC(=O)N(c2ccccc2)C1=O,> 4 mM (inactive)
18,CC(=O)Nc1cccc(N(C)S(C)(=O)=O)c1,> 4 mM (inactive)
19,CCCCCC/C=C\CCCCCCCc1cccc(O)c1C(=O)O,> 4 mM (inactive)
20,CC1/C(=N/O)C[C@@H]2C[C@H]1C2(C)C (some centres not stated),> 4 mM (inactive)
21,CC(NC(=O)C1CCCCC1)C(=O)NC1=NCCS1 (configuration not stated),> 4 mM (inactive)
22,Cc1ccc(S(=O)(=O)CC(=O)N2CCOCC2)cc1,0.095 mM
23,COc1cccc(C(=O)Nc2c(C)n[nH]c2C)c1,> 4 mM (inactive)
24,CC(=O)c1c(C)nc(C)nc1NC(=O)C(C)C,> 4 mM (inactive)

row,Compound,Kd
1,CCNC(CC(=O)Nc1ccc(O)cc1)C(=O)O (configuration not stated),> 4 mM (inactive)
2,CNC(=O)C(=O)Nc1c(C)cccc1C,> 4 mM (inactive)
3,NCc1ccccc1N1CCCCC1,> 4 mM (inactive)
4,COC(=O)Cc1csc(N)n1,> 4 mM (inactive)
5,CN1CCC(N2CCN(C)CC2)CC1,> 4 mM (inactive)
6,O=C(O)c1ccc(-n2ccnc2)cc1,> 4 mM (inactive)
7,COc1ccc(C2=CC(=O)C=CC2=O)cc1,> 4 mM (inactive)
8,C/C=C/C=N/NC(=O)c1ccc(=O)n(C)c1,> 4 mM (inactive)
9,CS(C)=C1C(=O)NC(=O)N(Cc2ccc(F)cc2)C1=O,> 4 mM (inactive)
10,COc1ccc2c(c1)OCC(Cc1ccc(OC)c(O)c1)C2=O (configuration not stated),> 4 mM (inactive)
11,CCOC(=O)c1cc(C)n(C)n1,> 4 mM (inactive)
12,OCc1ccccc1CN1CCOCC1,> 4 mM (inactive)
13,NC(=O)CSc1nnc(-c2ccncc2)o1,> 4 mM (inactive)
14,O=C(C1CCCCC1)N1CCN(c2ccccc2F)CC1,> 4 mM (inactive)
15,NC(=O)C1CCN(C(=S)c2cccs2)CC1,> 4 mM (inactive)
16,COc1ccc(NS(=O)(=O)N2CCOCC2)cc1,> 4 mM (inactive)
17,CC(=O)Oc1ccc(/C=C/c2cc(OC(C)=O)cc(OC(C)=O)c2)cc1,> 4 mM (inactive)
18,NS(=O)(=O)c1ccc(NC(=O)C2CC2)cc1,> 4 mM (inactive)
19,Cc1cn(C(=O)CN2C(=O)c3ccccc3C2=O)c(C)n1,> 4 mM (inactive)
20,CCN1C[C@@]2(COC)C3[C@@H](OC)[C@H]4[C@@H]1[C@]3(C(OC)C[C@H]2O)C1C[C@@]2(O)[C@H](OC(=O)c3ccccc3)C1[C@]4(OC(C)=O)[C@@H](O)[C@@H]2OC (some centres not stated),> 4 mM (inactive)
21,O=C(O)c1ccc2c(c1)CCO2,> 4 mM (inactive)
